The subject of assay [1] is MCF10CA1A breast cancer cells. Kind of assay: QCM ECMatrix cell invasion assay. The assay is classed as cell-based. To be noted: 100 μM, 72 hr. Here is the method:
(§1) Cell invasiveness of SW480 and HT29 human colon adenocarcinoma cells and MCF10CA1A breast cancer cells with and without 72 hr treatment with 100 μM ketoconazole was studied in 24-well plates using the QCM ECMatrix cell invasion assay kit (EMD Millipore).

Assay [2] has as its system PANC1 pancreatic cancer cells. Nature of the assay: Wound healing assay (cell migration). The assay is classed as cell-based. The following applies: PANC1, 100 μM. Here is the method: (§2) Wound healing assays were also carried out to verify inhibition of cell migration after ketoconazole treatment.
Assay [3] has as its system Mia Paca-2 pancreatic cancer cells. Nature of the assay: Wound healing assay (cell migration). To be noted: Mia Paca-2, 100 μM. The assay is classed as cell-based. As to the method:
as §2

The subject of assay [4] is unmodified c-myc in MCF-7 cells. Nature of the assay: Western blot of unmodified c-myc in MCF-7 cells. To be noted: MCF-7, 4 hr, 2 mM, antibody Peptide #2-N. The assay is classed as cell-based. Here is the method: (§3) Western blot analysis was carried out with 10% gel electrophoresis using nuclear lysates obtained from MCF-7 cells with antibodies for O-GlcNAcylated c-myc (Peptide #2-0). […] There was no increase in unmodified c-myc protein after ketoconazole treatment as verified with antibodies for unmodified c-myc (Peptide #2-N) by Western blot analysis.
In general terms: A western blot detects proteins with antibodies after separation by electrophoresis.

Assay [5] deals with HT29 colon cancer cells. Nature of the assay: Cell proliferation assay (MTT). The assay is classed as cell-based, human. From the text:
(§4) […] The cell number was counted after staining the cells with 3-(4,5-dimethylthiazol-2-yl)2,5-diphenyl-tetrazolium bromide (MTT).

The subject of assay [6] is SW480 colon cancer cells. Nature of the assay: Cell proliferation assay (MTT). The assay is classed as cell-based, human.
Description: as §4

The subject of assay [7] is MCF-7 breast cancer cells. Nature of the assay: Cell proliferation. The assay is classed as cell-based. As to the method: (§5) Cell proliferation assays were carried out after seeding 3,000-5,000 cells in a 96-well plate with and without treatment of 50 μM ketoconazole dissolved in DMSO (final concentration, 1%) for 72 hr (FIG. 8, Panel A). The cell number was counted after staining the cells with 3-(4,5-dimethylthiazol-2-yl)2,5-diphenyl-tetrazolium bromide (MTT).

Assay [8] relates to A549 lung cancer cells. Nature of the assay: Cell proliferation assay (MTT). The assay is classed as cell-based. To be noted: Homo sapiens, A549, 50 μM for 72 hr. As to the method:
as §5

The test system of assay [9] is PANC1 cells. Nature of the assay: Cell proliferation assay (MTT). The assay is classed as cell-based. The following applies: PANC1, same treatments, 72 hr. Here is the method:
as §5

For assay [10], the system named is Mia Paca-2 pancreatic cancer cells. Kind of assay: Cell proliferation assay (MTT). The assay is classed as cell-based. To be noted: Homo sapiens, Mia Paca-2, 50 μM for 72 hr. Here is the method: as §5
Assay [11] concerns H1437 lung cancer cells. Nature of the assay: Cell proliferation assay (MTT). The assay is classed as cell-based. The following applies: Homo sapiens, NCI-H1437, H1437, 50 μM for 72 hr. As to the method:
as §5

In assay [12] the test system is HT29 colon cancer cells. Kind of assay: QCM ECMatrix cell invasion assay. To be noted: HT29, 100 μM, 72 hr. The assay is classed as cell-based, human. As to the method: as §1
Assay [13] relates to SW480 colon cancer cells. Nature of the assay: QCM ECMatrix cell invasion assay. The assay is classed as cell-based, human. The following applies: SW480, 100 μM, 72 hr. As to the method: as §1
Assay [14] concerns Thr-58-O-GlcNAcylated c-myc in PANC-1 cells. Nature of the assay: Thr-58-O-GlcNAcylated c-myc expression in PANC-1 cells. The assay is classed as cell-based. To be noted: PANC-1, after ketoconazole treatment.
Assay [15] relates to O-GlcNAcylated c-myc in MCF-7 cells. Nature of the assay: Western blot of O-GlcNAcylated c-myc levels in MCF-7 cells. The assay is classed as cell-based. To be noted: for O-GlcNAcylated c-myc level: MCF-7, 4 hr. As to the method:
MCF-7 breast cancer cells were treated for 24 hr with 1% DMSO, with an O-GlcNAcase inhibitor, streptozotocin (STZ), with N6-methyladenosine 5′-monophosphate (an O-GlcNAcase inhibitor discovered through by screening with the pseudofluorescent substrate 4-methylumbelliferol (4-MU)-GlcNAc (7)) or with media (control) (FIG. 5).
(§6) O-GlcNAcase inhibitors, which increased O-GlcNAcylation levels of proteins by preventing cleavage of an O-GlcNAc moiety of Ser or Thr residues, were identified using the antibodies of the present invention. MCF-7 breast cancer cells (FIG. 6. Panel A, Lanes 1-4) and MCF10A normal breast cells (FIG. 6. Panel A, Lanes 5-8) were treated for 4 hr with 1% DMSO (FIG. 6, Panel A, Lanes 1 and 5), the O-GlcNAcase inhibitors acetazolamide (FIG. 6, Panel A, Lanes 2 and 6) and N6-methyladenosine 5′-monophosphate (FIG. 6, Panel A, Lanes […] and 7) or media (control) (FIG. 6, Panel A, Lanes 4 and 8). Western blot analysis (8-16% gel) was carried out with cell lysates (20 μg/lane) using antibodies for O-GlcNAcylated c-myc (Peptide #1-G, 5,000-fold diluted).
as §3
MCF-7 cells were treated for 4 hr with 1% DMSO (negative control) or 2 mM ketoconazole in DMSO and an O-GlcNAcylated c-myc band was detected using a second antibody for O-GlcNAcylated c-myc (Peptide #1-G).

For assay [16], the system named is HT29 colon cancer cells. Kind of assay: Wound healing assay (cell migration). The following applies: HT29, 100 μM. The assay is classed as cell-based, human. Here is the method: as §2
Assay [17] concerns SW480 colon cancer cells. Nature of the assay: Wound healing assay (cell migration). The assay is classed as cell-based, human. The following applies: SW480, 100 μM. Here is the method:
as §2

Assay [18] has as its system MCF-7 and MCF10A cells. Kind of assay: Lactate dehydrogenase (LDH) cytotoxicity assay. The following applies: 2 mM, 4 hr, LDH release. The assay is classed as cell-based. Here is the method:
Increased O-GlcNAcylated c-myc levels in MCF-7 cells induced cell death. MCF-7 tumor cell death after 2 mM ketoconazole treatment was compared with MCF10A normal cell death by LDH cytotoxicity assay. After treatment of cells for 4 hr, extracellular media and Triton X-100 solubilized cells were obtained and oxidation of NADH to NAD+ in both fractions was monitored for 2 min at a 340 nm to obtain total (media+cells) LDH release.
(Release of lactate dehydrogenase indicates damage to the cell membrane.)

Assay [19] has as its system O-GlcNAcylated c-myc in MCF10A cells. Nature of the assay: Western blot of O-GlcNAcylated c-myc levels in MCF10A cells. The assay is classed as cell-based. To be noted: 4 hr treatment, cell lysates, FIG. 6A. Here is the method: as §6
Assay [20] relates to O-GlcNAcylated p53 in MCF-7 cells. Nature of the assay: Western blot of O-GlcNAcylated p53 levels in MCF-7 cells. The assay is classed as cell-based. To be noted: MCF-7, 24 hr, 2 mM, cytosol-containing supernatants, FIG. 7B. As to the method: MCF-7 cells were grown for 24 hr with treatment of 1% DMSO (negative control) or 2 mM STZ or acetazolamide dissolved in DMSO or 2 mM N6-methyladenosine 5′-monophosphate dissolved in media. The cells were harvested and cytosol-containing supernatants were obtained.

Where [21] appears, read: 2 mM, nuclear lysates, antibody Peptide #2-G, FIG. 6B.
Setting [22] is: MCF-7, 4 hr treatment, cell lysates, FIG. 6A.
Setting [23] is: MCF-7, 24 hr treatment, 2 mM, nuclear lysates, FIG. 5.

“Also recorded” adds a separate entry of the source.

As for `CC(=O)N1CCN(c2ccc(OCC3COC(Cn4ccnc4)(c4ccc(Cl)cc4Cl)O3)cc2)CC1` (stereo not shown) [ketoconazole], the cell invasiveness result in assay [1] was “partially inhibited”; in assay [1] (listed as Ketoconazole), “slight loss of cell invasiveness”; in assay [12] it was “loss of cell invasiveness”; in [13] it was “loss of cell invasiveness”. For the same compound, the “inhibition of cell migration” value in [2] is “no significant differences”. The “% cells migrated toward a scratched field” value in [2] (0 hr) amounted to 0%; in [2] (24 hr) it was 6%; in assay [2] (48 hr), 11%; in [3] (0 hr), 0%; in assay [3] (24 hr) it was 11.6%; in [3] (24 hr, listed as Ketoconazole) it was 10%. Moreover, the “% cells migrated toward a scratched field” value in [3] (48 hr) was found to be 12%. Moreover, the inhibition at 100 µM in [3] (Homo sapiens, 24 and 48 hr, (36/46 × 100) and (43/55 × 100)) is 78%; in assay [12] (Homo sapiens, HT-29, read-out: inhibition of migration in cell invasion assay), 100%; in assay [13] (Homo sapiens, read-out: inhibition of migration in cell invasion assay), 100%. Moreover, the unmodified c-myc protein entry in [4] was “no increase”. For the same compound, the cell proliferation result in [5] (HT29, 100 μM) was “inhibited”; in assay [6] (SW480, 100 μM), “inhibited”. Also, the inhibition at 50 µM in [5] (Homo sapiens, HT-29, HT29, 50 μM for 72 hr, MTT) came out at 67.4%; in assay [6] (Homo sapiens, SW480, 50 μM for 72 hr, MTT) it was 63.3%; in [8] it was 51.3%; in [10] it was 60.2%; in assay [11], 44.9%. In assay [7], the “proliferation of MCF-7 breast cancer cells” value is “inhibited”. Further, the “inhibition of cell proliferation” value in assay [9] was “failed to inhibit; also recorded: no significant differences”. Further, in [14], the Thr-58-O-GlcNAcylated c-myc expression entry is “failed to increase”. Further, the O-GlcNAcylated c-myc level entry in assay [15] (setting [21]) is reported as “dramatically increased”; in assay [15] (2 mM, second antibody Peptide #1-G, FIG. 6C), “dramatically increased”. In addition, the “Percent of cells migrated toward a scratched field” value came to 0% in assay [16] (0 hr), 8% in assay [16] (24 hr), 0% in assay [17] (0 hr) and 27% in assay [17] (24 hr). Also, the “increased cell death in MCF-7 cells higher than in MCF10A cells” value in assay [18] is recorded as 84%.

As for `O=C1CC2(CCCC2)CC(=O)N1CCCCN1CCN(c2ncccn2)CC1` [buspirone], the O-GlcNAcylated c-myc level result in assay [15] (setting [21]) is reported as “did not increase”.

`CC(=O)Nc1nnc(S(N)(=O)=O)s1` [acetazolamide]: the O-GlcNAcylated c-myc levels result in assay [19] and in [15] (setting [22]) was “failed to increase” in each case. Moreover, the “Levels of O-GlcNAcylated p53” value in [20] is “increased”. For the same compound, the “O-GlcNAcylated c-myc levels in nucleus” value in [15] (MCF-7, 24 hr, 2 mM, data not shown) is “did not increase”.

Regarding `CN(N=O)C(=O)N[C@H]1C(O)O[C@H](CO)[C@@H](O)[C@@H]1O` (mixture of isomers) [STZ, streptozotocin], the O-GlcNAcylated c-myc levels entry in assay [15] (setting [23]) is reported as “failed to increase”.

On to `CNc1ncnc2c1ncn2[C@@H]1O[C@H](COP(=O)(O)O)[C@@H](O)[C@H]1O` [N6-methyladenosine 5′-monophosphate], for which the O-GlcNAcylated c-myc levels result in [19], in assay [15] (setting [22]) and in assay [15] (setting [23]) was “failed to increase” throughout. Besides, in [20], the “Levels of O-GlcNAcylated p53” value is “increased”.

These data come from US10317409B2, “Glycosylation site-specific antibodies and anti-cancer compounds” (Detroit R&D, Inc., priority 2013, dated 2019).
